Entries after “also recorded” stand apart in the source; their conditions may differ.

The target in data set [1] is TGFβR-I (Homo sapiens, UniProt P36897). The conditions noted are these: cited from earlier work.
For data set [2], the system named is human cortical astrocytes (HA1800, ScienCell). It is filed as cell-based. The note with it: VPA in reprogramming medium longer than 2 days.
Data set [3] deals with human astrocytes. Kind of data set: Withdrawal of each individual compound from the 9 small molecule pool. It is filed as cell-based. The conditions noted are these: 14 days post initial treatment; for effect of removal from the 9 small molecule pool on number of converted neurons / reprogramming efficiency: SAG and Purmo removed together. The source says: This Example describes analysis of functional roles of each individual compound during chemical reprogramming. To dissect out the contribution of each single molecule toward reprogramming, we performed a series of experiments by withdrawing each individual compound from our cocktail pool (FIG. 6). […] FIG. 6K illustrates the summarized data of drug withdrawing experiments. While it is not a surprise that Tzv had no effect since it mainly acts as a cell survival factor, it was unexpected to find that removing TTNPB had no effect. […] On the other hand, the inhibition of Notch signaling, GSK-3β, and BMP/TGFβ signaling pathways appeared to be important for reprogramming astrocytes into neurons. […] Reprogramming human astrocytes into neurons. The astrocytes were cultured on poly-D-lysine (Sigma) coated coverslips (12 mm) at a density of 50,000 cells per coverslip in 24-well plates (BD Biosciences). The cells were cultured in human astrocyte medium until 90% confluence. At day 0 before reprogramming, half of the culture medium was replaced by N2 medium consisting of DMEM/F12 (Gibco), penicillin/streptomycin (Gibco) and N2 supplements (Gibco). The following day (Day 1), the culture medium was completely replaced by N2 medium supplemented with small molecules, or with 1% DMSO in control group. […] To promote synaptic maturation of converted neurons, brain-derived neurotrophic factor (BDNF, 20 ng/Ml, Invitrogen), Insulin-like growth factor 1 (IGF-1, 10 ng/ml, Invitrogen) and neurotrophin 3 (NT-3, 10 ng/ml, Invitrogen) were added in neuronal differentiation medium at day 9 and were refreshed every four days until day 30 (Song et al., 2002).

The subject of data set [4] is Aβ40 and Aβ42 in SH-SY5Y neuroblastoma cells. The conditions noted are these: cited from earlier work.
The conditions of data set [5]: cited from earlier work.
For data set [6], the system named is Notch. The conditions noted are these: cited from earlier work.
In data set [7] the test system is Aβ42 in human neuroblastoma cells. The note with it: cited from earlier work.
Data set [8] relates to Aβ40 in human neuroblastoma cells. The note with it: cited from earlier work.
Data set [9] addresses gamma secretase. The note with it: read-out: IC50 γ-secretase; cited from earlier work.
The subject of data set [10] is mouse embryonic stem cells. The note with it: At 400 Nm; cited from earlier work.
The target in data set [11] is GSK-3β (Homo sapiens, UniProt P49841). The conditions noted are these: cited from earlier work.
Chain of GSK-3β (P49841 whole entry, species assumed): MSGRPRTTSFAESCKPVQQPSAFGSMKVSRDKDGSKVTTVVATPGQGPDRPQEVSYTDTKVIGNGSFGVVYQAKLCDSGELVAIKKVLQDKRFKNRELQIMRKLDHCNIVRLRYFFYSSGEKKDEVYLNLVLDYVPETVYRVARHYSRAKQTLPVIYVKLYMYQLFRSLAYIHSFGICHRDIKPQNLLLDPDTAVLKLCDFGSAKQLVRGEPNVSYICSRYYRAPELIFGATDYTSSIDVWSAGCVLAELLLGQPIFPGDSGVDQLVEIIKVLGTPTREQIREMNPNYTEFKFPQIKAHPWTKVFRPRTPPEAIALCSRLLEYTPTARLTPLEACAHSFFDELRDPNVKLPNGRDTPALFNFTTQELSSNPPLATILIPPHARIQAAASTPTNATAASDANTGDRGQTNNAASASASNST
Data set [12] concerns human astrocyte-converted neurons. Kind of data set: Patch clamp whole-cell recordings of human astrocyte-converted neurons. Background: In patch-clamp work, channel activity is measured electrically.
The test system of data set [13] is Notch cleavage and Notch-mediated intracellular signaling. The conditions noted are these: cited from earlier work.
Data set [14] deals with BACE1, BACE2, α-secretase, the proteasome or GSK3β. The conditions noted are these: cited from earlier work.

Chain of TGFβR-I (P36897 34-503): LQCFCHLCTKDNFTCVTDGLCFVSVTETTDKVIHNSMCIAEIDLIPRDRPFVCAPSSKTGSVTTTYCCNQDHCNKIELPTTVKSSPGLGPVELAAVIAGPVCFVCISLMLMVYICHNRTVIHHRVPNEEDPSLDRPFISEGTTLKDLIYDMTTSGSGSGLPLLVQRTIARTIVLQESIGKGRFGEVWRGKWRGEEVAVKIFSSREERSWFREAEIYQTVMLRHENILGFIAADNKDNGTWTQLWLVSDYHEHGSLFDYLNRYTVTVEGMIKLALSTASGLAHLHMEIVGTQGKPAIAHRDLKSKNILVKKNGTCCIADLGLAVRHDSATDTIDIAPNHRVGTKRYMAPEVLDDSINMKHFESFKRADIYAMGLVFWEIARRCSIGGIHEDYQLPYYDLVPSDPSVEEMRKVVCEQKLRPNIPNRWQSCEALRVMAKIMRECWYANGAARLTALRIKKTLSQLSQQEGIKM

For the compound LY364947, in data set [1], the “selectivity over TGFβR-II” value is reported as “shows 7-fold selectivity over TGFβR-II”. On to `CCCC(CCC)C(=O)O` [VPA, valproic acid], for which, in data set [2], the cell death entry is listed as “increased cell death”. The “effect of individual removal from the 9 small molecule pool on number of converted neurons / reprogramming efficiency” value in data set [3] is on record as “slightly reduced”.

In the case of `O=S(=O)(NC1CCC(c2cc(F)ccc2F)(S(=O)(=O)c2ccc(Cl)cc2)CC1)C(F)(F)F` (stereo not shown) [MRK 560], the IC50 (usually the point on the concentration scale where inhibition reaches its midpoint) in [4] was 0.65 nM. In addition, the “oral bioavailability” value in data set [5] is on record as “Orally bioavailable”. Turning to `CNC1CCC(N(Cc2cccc(-c3ccncc3)c2)C(=O)c2sc3ccccc3c2Cl)CC1` (stereo not shown) [SAG], in data set [3], the “effect of removal from the 9 small molecule pool on number of converted neurons / reprogramming efficiency” value is reported as “slightly reduced”. For `C/C(=C\c1ccc(C(=O)O)cc1)c1ccc2c(c1)C(C)(C)CCC2(C)C` [TTNPB], the “effect of individual removal from the 9 small molecule pool on number of converted neurons / reprogramming efficiency” value in data set [3] is “did not affect; also recorded: did not have a significant effect”.

Regarding `NC(=O)c1ccc(-c2nc(-c3ccc4c(c3)OCO4)c(-c3ccccn3)[nH]2)cc1` [SB431542, -[4-(1,3-benzodioxol-5-yl)-5-(2-pyridinyl)-1H-imidazol-2-yl]benzamide], in data set [3], the “effect of individual removal from the 9 small molecule pool on number of converted neurons / reprogramming efficiency” value is “significantly reduced”. Consider `C[C@H](NC(=O)CCC(F)(F)F)C(=O)N[C@@H]1C(=O)N(CCO)c2ncccc2-c2ccccc21` [LY3039478], for which the IC50 in data set [6] is 0.41 nM. Take `c1ccc2c(Oc3nc(Nc4ccc(N5CCOCC5)cc4)c4ncn(C5CCCCC5)c4n3)cccc2c1` [Purmo, purmorphamine]: the “effect of removal from the 9 small molecule pool on number of converted neurons / reprogramming efficiency” value in data set [3] is reported as “slightly reduced”. With `CC(C)C[C@H](NC(=O)[C@H](Cc1ccccc1)C[C@@H](O)[C@H](Cc1ccccc1)NC(=O)OC(C)(C)C)C(=O)N[C@@H](Cc1ccccc1)C(N)=O` [L-685, 458], the IC50 in data set [7] is 67 nM; in data set [8] it was 48 nM; in [9], 17 nM. On to `C[C@H](NC(=O)Cc1cc(F)cc(F)c1)C(=O)N[C@H](C(=O)OC(C)(C)C)c1ccccc1` [DAPT], for which the “effect of individual removal from the 9 small molecule pool on number of converted neurons / reprogramming efficiency” value in data set [3] is “significantly reduced; also recorded: most significant reduction”.

Regarding `N#Cc1ccc2[nH]c(O)c(-c3ccc(CN4CCOCC4)cn3)c2c1` [AZD1080], the “oral activity and brain permeability” value in data set [5] is recorded as “selective, orally active, brain permeable GSK3 inhibitor”.

Turning to `Nc1cccc(-c2cc3c(Oc4cccc(O)c4)ncnc3[nH]2)c1` [TWS119], the “neurogenesis in mouse embryonic stem cells” value in data set [10] is listed as “TWS119 induces neurogenesis in mouse embryonic”. Moreover, in [11], the IC50 was 30 nM. Regarding `CC(C)(C(=O)NCC(F)(F)C(F)(F)F)C(=O)N[C@@H]1C(=O)Nc2ccccc2-c2ccccc21` [RO4929097], the half-maximal inhibitory concentration (IC50) in [9] is 4 nM. In the case of DNQX, the “effect on the majority of synaptic events at −70 mV” value in data set [12] is reported as “blocked”.

Consider `COc1oc(=O)c2cc(N)ccc2c1Cl` [LK 6], for which the “effect on Notch cleavage and Notch-mediated intracellular signaling” value in data set [13] is given as “no effect”. Besides, the “activity on BACE1, BACE2, α-secretase, the proteasome or GSK3β” value in data set [14] is recorded as “signaling. Displays no activity on BACE1, BACE2,”. Regarding `O=C(NCc1ccccc1)c1csc(Nc2ccncn2)n1` [Tzv, thiazovivin], the “effect of individual removal from the 9 small molecule pool on number of converted neurons / reprogramming efficiency” value in data set [3] was “did not affect; also recorded: did not have a significant effect”.

The values above are taken from patent publication US11850273B2, “Chemical reprogramming of human glial cells into neurons for brain and spinal cord repair” (The Penn State Research Foundation, priority 2014, dated 2023).
